According to patent US20050182040A1, “Benzamide derivatives” (priority 2002, published 2005):

Legend:
Rho kinase = target: T1, Rho kinase (Bos taurus, UniProt Q28021); assay: Assay of the inhibition of phosphorylation by Rho kinase; type: biochemical; details: Rho kinase immobilized from bovine brain extract fraction on anti-Rho kinase antibody plate; 0.1 μM ATP ([γ-32P]ATP), histone (HF2A) substrate; room temperature, 4 hours
T1 construct: Rho kinase was selectively immobilized from the bovine brain extract fraction; from tissue; host or cells: bovine brain gray matter extract, captured on an anti-ROKII peptide antibody plate
T1 sequence (Q28021 whole entry): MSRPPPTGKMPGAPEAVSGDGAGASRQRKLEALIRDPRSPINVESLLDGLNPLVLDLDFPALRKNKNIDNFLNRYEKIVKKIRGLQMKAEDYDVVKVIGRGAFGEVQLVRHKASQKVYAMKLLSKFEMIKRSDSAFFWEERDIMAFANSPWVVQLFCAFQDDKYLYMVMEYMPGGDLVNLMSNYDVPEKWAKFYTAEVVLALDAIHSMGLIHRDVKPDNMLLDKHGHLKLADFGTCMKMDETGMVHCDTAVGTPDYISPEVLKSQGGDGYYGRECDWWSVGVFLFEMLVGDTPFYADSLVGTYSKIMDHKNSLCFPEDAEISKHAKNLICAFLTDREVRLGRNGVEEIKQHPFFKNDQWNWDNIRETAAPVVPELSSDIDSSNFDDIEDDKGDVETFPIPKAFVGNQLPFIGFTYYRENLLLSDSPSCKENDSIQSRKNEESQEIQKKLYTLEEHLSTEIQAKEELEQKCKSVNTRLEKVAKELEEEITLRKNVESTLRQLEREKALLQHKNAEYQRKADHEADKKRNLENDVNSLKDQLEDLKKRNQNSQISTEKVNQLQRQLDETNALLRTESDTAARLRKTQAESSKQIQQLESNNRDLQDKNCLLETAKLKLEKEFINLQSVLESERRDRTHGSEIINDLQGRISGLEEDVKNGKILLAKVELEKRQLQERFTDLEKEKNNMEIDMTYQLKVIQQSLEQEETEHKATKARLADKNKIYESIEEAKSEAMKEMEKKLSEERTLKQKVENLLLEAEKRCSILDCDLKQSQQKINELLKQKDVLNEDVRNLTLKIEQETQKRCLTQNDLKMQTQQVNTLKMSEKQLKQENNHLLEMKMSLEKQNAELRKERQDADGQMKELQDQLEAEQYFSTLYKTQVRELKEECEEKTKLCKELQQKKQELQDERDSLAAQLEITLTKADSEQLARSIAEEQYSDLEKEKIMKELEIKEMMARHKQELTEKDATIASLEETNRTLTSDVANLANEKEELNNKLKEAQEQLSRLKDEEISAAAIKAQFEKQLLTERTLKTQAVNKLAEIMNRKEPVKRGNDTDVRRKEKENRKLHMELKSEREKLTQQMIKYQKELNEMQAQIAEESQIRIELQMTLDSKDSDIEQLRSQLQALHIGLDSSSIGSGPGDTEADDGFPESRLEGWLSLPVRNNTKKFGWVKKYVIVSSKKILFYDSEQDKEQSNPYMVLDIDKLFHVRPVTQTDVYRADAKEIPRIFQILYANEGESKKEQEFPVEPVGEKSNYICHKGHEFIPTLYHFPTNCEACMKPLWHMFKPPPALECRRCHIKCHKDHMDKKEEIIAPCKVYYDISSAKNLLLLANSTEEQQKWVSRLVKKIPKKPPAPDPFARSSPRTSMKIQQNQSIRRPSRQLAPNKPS
Description: Assay of the inhibition of phosphorylation by Rho kinase
A bovine brain extract fraction was prepared as follows. That is, a piece of gray matter was minced from bovine brain and suspended in a buffer solution for immunoprecipitation (10 mM tris(hydroxymethyl)aminomethane (Tris) (pH 7.5), 1% Triton X-100, 0.5% NP-40, 150 mM NaCl, 20 mM sodium fluoride, 1 mM ethylenediaminetetraacetic acid (EDTA), 1 mM ethylene glycol bis(β-aminoethyl ether)-N,N,N′,N′-tetraacetic acid (EGTA) and 0.2 mM phenylmethylsulfonyl fluoride (PMSF)) in two volumes of the gray matter. The tissue was homogenized by the use of a Potter type homogenizer made of polytetrafluoroethylene. After the homogenate was centrifuged at 20,000 g for 15 minutes, the supernatant was collected and then subjected to ultracentrifugation at 100,000 g for 60 minutes. The resulting supernatant was used as a bovine brain extract fraction.
An anti-Rho kinase antibody immobilized plate was prepared as follows. That is, a secondary antibody (anti-goat IgG (Fc) antibody) was diluted 300-fold with phosphate-buffered saline (PBS) (1 μl antibody/300 μl PBS), and 100 μl of the resulting dilution was added to each well of a 96-well ELISA plate. After coating at room temperature for 2 hours, the supernatant was removed. Thereafter, 100 μl of PBS was added and then the supernatant was removed (this washing operation was carried out twice). After the washing, 100 μl of a blocking buffer solution (0.05% Tween 20 and 0.25% bovine serum albumin (fatty acid free)/PBS) was added, followed by blocking at room temperature for 1 hour. After the blocking, each well was washed twice with 100 μl of the blocking buffer solution, and 100 μl of a primary antibody (anti-ROKII (Rho kinase) peptide antibody) diluted 200-fold (0.5 μl (0.1 μg)/100 μl) with PBS was added, followed by coating at room temperature for 2 hours. After the coating, each well was washed once with 100 μl of the blocking buffer solution. In addition, 100 μl of the blocking buffer solution was added to obtain an anti-Rho kinase antibody immobilized plate.
Using the aforesaid plate, Rho kinase was selectively immobilized from the bovine brain extract fraction, and phosphorylation by Rho kinase was assayed. To each well of the antibody-immobilized plate was added 100 μl of a bovine brain extract solution prepared so as to have a concentration of 1.5 mg/ml, and the reactions were incubated at 4° C. for 1 hour to immobilize Rho kinase on the plate. After completion of the reaction, the supernatant was removed and each well was washed three times with 100 μl of the buffer solution for immunoprecipitation. In addition, each well was washed three times with 100 μl of buffer solution A (50 mM Tris (pH 7.5), 10 mM MgCl2 and 150 mM NaCl). To each well of the plate freed from the supernatant was added 40 μl of the aforesaid buffer solution for reaction (50 mM Tris-HCl (pH 7.5), 2 mM EDTA and 10 mM MgCl2). Further, adenosine 5′-triphosphate (ATP) buffer (0.1 μM ATP (containing 6 nM [v-^32P]ATP) and 10 μg histone (HF2A)) containing each compound was prepared, and 10 μl of this solution was added to each well of the plate to initiate the reaction. The reactions were carried out at room temperature for 4 hours. The reaction was terminated by the addition of a phosphoric acid solution of a final concentration of 75 mM and 50 μM ATP. After completion of the reaction, 50 μl of the reaction solutions were spotted onto a phosphocellulose filter for Beta Plate 1205 (Wallac) only. After completion of the spot, the filter was washed with 150 ml of a 75 mM phosphoric acid solution for 10 minutes. This washing operation was repeated three times. After completion of the washing, the filter was dried and then wrapped in a cellophane bag, and 10 ml of a liquid scintillation cocktail was added. The amount of energy (β-ray radioactivity count) trapped in the filter was measured with Beta Plate 1205. […]

IC50 (Rho kinase) | melting point | Compound
28.4 nM |  | COc1cc(N[C@H]2CC[C@H](N)CC2)c(F)cc1C(N)=O [Example 158, 4-[(trans-4-aminocyclo-hexyl)amino]-5-fluoro-2-methoxybenzamide]
28.7 nM |  | NC(=O)c1cc(Cl)c(N[C@H]2CC[C@H](N)CC2)cc1F [Example 141, 4-[trans-(4-aminocyclohexyl)-amino]-5-chloro-2-fluorobenzamide]
26.4 nM |  | NC(=O)c1cc(F)c(N[C@H]2CC[C@H](N)CC2)cc1F [Example 162, 4-[trans-(4-aminocyclohexyl)-amino]-2,5-difluorobenzamide]
24.8 nM |  | NC(=O)c1cc(Br)c(N[C@H]2CC[C@H](N)CC2)cc1F [Example 163, 4-[trans-(4-aminocyclohexyl)-amino]-5-bromo-2-fluorobenzamide]
21.8 nM |  | COc1cc(N[C@H]2CC[C@H](N)CC2)c(Cl)cc1C(N)=O [Example 113, 4-[(trans-4-aminocyclohexyl)amino]-5-chloro-2-methoxybenzamide]

The remaining lines, values behind:

Compound | IC50 (Rho kinase) | melting point
NC(=O)c1ccc(OC2CCN(Cc3ccccc3)CC2)cc1 [Example 25, 4-[(1-benzylpiperidin-4-yl)oxy]benzamide] |  | 166 to 168 °C
NC(=O)c1ccc(NC(=O)C2CCCN(Cc3ccccc3)C2)cc1 (centres unmarked) [Example 13, N-[4-(aminocarbonyl)phenyl]-1-benzylpiperidine-3-carboxamide] |  | 211 to 212 °C
COc1cc(NCc2ccccc2)ccc1C(N)=O [Example 85, 4-(benzylamino)-2-methoxybenzamide] |  | 175 to 176 °C
COc1cc(O[C@H]2CC[C@H](N)CC2)c(Cl)cc1C(N)=O [Example 159, 4-[(trans-4-aminocyclohexyl)-oxy]-5-chloro-2-methoxybenzamide] | 24.4 nM | 
COc1cc(NC2CCN(Cc3ccccc3)CC2)ccc1C(N)=O [Example 28, 4-[(1-benzylpiperidin-4-yl)amino]-2-methoxybenzamide] |  | 155 to 157 °C
COc1cc(NCc2ccncc2)ccc1C(N)=O [Example 128, 2-Methoxy-4-[(pyridin-4-ylmethyl)amino]-benzamide] |  | 180 to 183 °C
Cl.NC(=O)c1ccc(NC2CCNCC2)cc1 |  | 292 to 294 °C (dec.)
NC(=O)c1ccc(NC2CCN(Cc3ccccc3)CC2)cc1 [Example 10, 4-[(1-benzylpiperidin-4-yl)amino]benzamide] | 2000 nM | 192 to 193 °C
